Results taken from patent US20100204464A1, “ASCORBIC ACID DERIVATIVES, THEIR PREPARATION METHODS, INTERMEDIATES AND USES IN COSMETICS” (NANJING ZHONGSHI CHEMICAL CO., LTD., priority 2007, published 2010).

Assays:
B16F10 cells [1] = assay: Quantitative analysis of the content of melanin of B16F10 cells; assay type: cell-based, murine; conditions: for Content of melanin of B16F10 cells (Mean ± SE): 6 days, blank control = 100%
Experimental: (§1) The effects of preventing melanin from deposition (whitening effects) of 3-O-glycosyl-L-ascorbic acid and 2-O-α-D-glucopyranosyl-L-ascorbic acid (AA-2G) were evaluated by using B16F10 murine melanoma cells. […] The experimental method comprising:
D. Quantitative analysis of the content of melanin.
B16F10 cells were seeded in φ 60 mm culture mediums, and incubated under 5% CO2 and at 37° C. for 24 h, then the supernatant was removed and to each medium was added culture medium containing different concentration of medicine and for control group, only culture medium was added. Each group was in triplicate and the culture medium was renewed every other day. After being incubated for 6 days, the cells were digested by 0.25% trypsin/EDTA and collected, then washed by PBS twice. The cells of each group were counted and 0.2 mL redistilled water was added to make the cells suspended for 1 min respectively, then the mixture of 500 μL ethanol and 500 μL ether was added. The cells were placed at room temperature for 15 min and centrifuged at a rate of 3000 rpm for 5 min, then the supernatant was removed and 1 ml NaOH (1 mol/L, containing 10% DMSO) was added to the precipitate. After being placed at 80° C. for 30 min, 4 mL redistilled water was added to dilute the concentration of NaOH to 0.2 mol/L. The absorbance of each group was measured at a wavelength of 475 nm (reference wavelength: 620 nm) by spectrophotometer. The content of melanin=[(absorbance of the group of medicine to be screened/average amount of cells)/(average absorbance of control group/average amount of cells)]*100%

[2] = system: B16F10 murine melanoma cells; assay: MTT experiment: multiplication of melanoma cells; assay type: cell-based; conditions: for Multiplication rate of melanoma cell (MTT method, Mean ± SE): 72 h, blank control = 100%; for Concentration at which multiplication of B16F10 cells was significantly inhibited / Concentration with no influence on the multiplication of B16F10 cells: MTT experiment
Experimental: as §1
A. MTT experiment: to investigate the influence of each sample on the multiplication of B16F10 murine melanoma cell through cell culture.
All cells were seeded in the 96-well plate respectively at a density of 1*10^4/well, and incubated under 5% CO2 and at 37° C. for 24 h, then the supernatant was removed and to each well was added […] culture medium containing a certain concentration of medicine. Three concentrations, high, middle and low, were set for each medicine, each concentration in quadruplicate wells. For control group, 200 μL culture medium was directly added and incubated for 72 h. 20 μL MTT solution (5 g/L) was added to each well and the sample was incubated under 5% CO2 and at 37° C. for 4 h, then the supernatant was removed and to each well was added 150 μL DMSO. The sample was vibrated for 10 min and the absorbance of each well was measured at a wavelength of 490 nm (reference wavelength: 620 nm) by enzyme-label instrument. Cell multiplication rate=(average absorbance of each concentration of medicine to be screened)/(average absorbance of control group)*100%.

tyrosinase = target: T1, tyrosinase (Mus musculus, UniProt P11344); assay: Activity of tyrosinase of B16F10 melanoma cells (L-DOPA, absorbance 490 nm); assay type: cell-based, murine; conditions: for Activity of tyrosinase of B16F10 melanoma cell (Mean ± SE): 6 days, control = 100%
T1 construct: endogenous in cells; host or cells: B16F10 murine melanoma cells
T1 sequence (P11344 19-533): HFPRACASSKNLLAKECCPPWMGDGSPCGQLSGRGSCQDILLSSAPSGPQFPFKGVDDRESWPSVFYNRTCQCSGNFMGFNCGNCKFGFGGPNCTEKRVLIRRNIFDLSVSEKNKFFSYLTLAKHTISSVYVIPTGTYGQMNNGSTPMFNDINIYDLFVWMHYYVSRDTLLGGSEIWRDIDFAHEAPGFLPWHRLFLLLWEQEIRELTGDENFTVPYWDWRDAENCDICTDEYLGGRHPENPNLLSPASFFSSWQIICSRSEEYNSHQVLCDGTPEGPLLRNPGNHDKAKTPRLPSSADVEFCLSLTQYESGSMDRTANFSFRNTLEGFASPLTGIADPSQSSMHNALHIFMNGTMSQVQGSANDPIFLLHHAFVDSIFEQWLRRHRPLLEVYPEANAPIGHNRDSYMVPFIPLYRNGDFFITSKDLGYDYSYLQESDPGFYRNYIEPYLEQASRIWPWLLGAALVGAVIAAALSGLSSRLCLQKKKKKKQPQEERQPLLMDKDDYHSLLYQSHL
Experimental: as §1
B. Experiment for determining the activity of tyrosinase: to investigate through cell culture the influence of each sample on the activity of tyrosinase playing an important role in the formation of melanin.
B16F10 cells were seeded in the 96-well plate respectively at a density of 5*10^3/well, and incubated under 5% CO2 and at 37° C. for 24 hour, then the supernatant was removed and to each well was added 100 μL culture medium containing different concentration of medicine to be screened and for blank control group, only culture medium was added. Each group was in quadruplicate and the culture medium was renewed every other day. After being incubated for 6 days, each well was washed by PBS without Ca^2+ and Mg^2+, and then 100 μL Triton-X solution (0.5%) was added to each well. After being vibrated in ultrasound for 30 minutes, 50 μL L-DOPA solution (10 mM/L) was added to each well and the samples was kept at 37° C. for 3 hours. The absorbance of each well was measured at a wavelength of 490 nm (reference wavelength: 620 nm) by enzyme-label instrument. Influence rate of the activity of tyrosinase=(average absorbance of the group of medicine to be screened)/(average absorbance of control group)*100%

[3] = Stability of aqueous solutions stored 3 months, content by HPLC and color; assay type: physicochemical; conditions: for Color, in words / Content (HPLC), in words: 10%, 5% and 1.0% aqueous solutions; for Content (HPLC): initial content 98%
Experimental: In the comparative experiment of stability between 3-O-lactosyl-L-ascorbic acid and 2-O-α-D-glucopyranosyl-L-ascorbic acid (AA-2G), both compounds were prepared as 10%, 5% and 1.0% aqueous solutions respectively and were placed at 0° C., 25° C. and […] respectively for 3 months.

B16F10 cells [4] = assay: DOPA staining of B16F10 cells (qualitative melanin/tyrosinase); assay type: cell-based, murine; conditions: 6 days, 0.5% L-DOPA, photos under microscope
Experimental: as §1
Each group was in quadruplicate and the culture medium was renewed every other day.

OC[C@H]1O[C@@H](Oc2ccc(O)cc2)[C@H](O)[C@@H](O)[C@@H]1O [Arbutin]
Content of melanin of B16F10 cells (Mean ± SE) (B16F10 cells [1]; 1.0 mM): 50.12 ± 1.97 % | Content of melanin of B16F10 cells (Mean ± SE) (B16F10 cells [1]; 2.5 mM): 36.61 ± 2.15 % | Content of melanin of B16F10 cells (Mean ± SE) (B16F10 cells [1]; 5.0 mM): 20.53 ± 1.02 % | Multiplication rate of melanoma cell (MTT method, Mean ± SE) ([2]; 1.0 mM): 113.57 ± 5.57% | Multiplication rate of melanoma cell (MTT method, Mean ± SE) ([2]; 5.0 mM): 102.94 ± 3.64% | Multiplication rate of melanoma cell (MTT method, Mean ± SE) ([2]; 10.0 mM): 76.94 ± 6.08% | Multiplication rate of melanoma cell (MTT method, Mean ± SE) ([2]; 20.0 mM): 46.15 ± 3.41 % | Activity of tyrosinase of B16F10 melanoma cell (Mean ± SE) (tyrosinase; 1.0 mM): 50.02 ± 4.04 % | Activity of tyrosinase of B16F10 melanoma cell (Mean ± SE) (tyrosinase; 2.5 mM): 38.07 ± 1.78 % | Activity of tyrosinase of B16F10 melanoma cell (Mean ± SE) (tyrosinase; 5.0 mM): 20.53 ± 1.02 %

O=c1cc(CO)occ1O [Kojic acid]
Content of melanin of B16F10 cells (Mean ± SE) (B16F10 cells [1]; 1.0 mM): 37.20 ± 4.33 % | Content of melanin of B16F10 cells (Mean ± SE) (B16F10 cells [1]; 2.5 mM): 24.15 ± 1.88 % | Content of melanin of B16F10 cells (Mean ± SE) (B16F10 cells [1]; 5.0 mM): 17.65 ± 1.42 % | Multiplication rate of melanoma cell (MTT method, Mean ± SE) ([2]; 1.0 mM): 92.20 ± 8.28% | Multiplication rate of melanoma cell (MTT method, Mean ± SE) ([2]; 5.0 mM): 63.23 ± 3.66% | Multiplication rate of melanoma cell (MTT method, Mean ± SE) ([2]; 10.0 mM): 43.10 ± 2.31 % | Multiplication rate of melanoma cell (MTT method, Mean ± SE) ([2]; 20.0 mM): 43.55 ± 7.36 %

O=C1O[C@H]([C@@H](O)CO)C(O)=C1O[C@H]1O[C@H](CO)[C@@H](O)[C@H](O)[C@H]1O [VC derivative 1, 2-O-α-D-glucopyranosyl-L-ascorbic acid]
Color, in words ([3]; 0° C.): colorless | Content (HPLC), in words ([3]; 0° C.): almost unchanged | Color, in words ([3]; 25° C. and 45° C.): obviously yellow | Content (HPLC), in words ([3]; 25° C. and 45° C.): decreased | Effect of inhibiting the synthesis of melanin (B16F10 cells [1]): relatively weak | Content of melanin of B16F10 cells (Mean ± SE) (B16F10 cells [1]; 1.0 mM): 96.37 ± 3.63% | Content of melanin of B16F10 cells (Mean ± SE) (B16F10 cells [1]; 2.5 mM): 91.11 ± 1.82% | Content of melanin of B16F10 cells (Mean ± SE) (B16F10 cells [1]; 5.0 mM): 84.19 ± 1.85% | Multiplication rate of melanoma cell (MTT method, Mean ± SE) ([2]; 1.0 mM): 108.66 ± 9.32% | Multiplication rate of melanoma cell (MTT method, Mean ± SE) ([2]; 5.0 mM): 100.98 ± 14.79% | Multiplication rate of melanoma cell (MTT method, Mean ± SE) ([2]; 10.0 mM): 43.21 ± 7.40 % | Multiplication rate of melanoma cell (MTT method, Mean ± SE) ([2]; 20.0 mM): 8.17 ± 0.46 % | Concentration at which multiplication of B16F10 cells was significantly inhibited [2]: ≥ 5.0 mM | Concentration with no influence on the multiplication of B16F10 cells [2]: lower than 5.0 mM | Activity of tyrosinase of B16F10 melanoma cell (Mean ± SE) (tyrosinase; 1.0 mM): 95.99 ± 2.01% | Activity of tyrosinase of B16F10 melanoma cell (Mean ± SE) (tyrosinase; 2.5 mM): 92.40 ± 0.94% | Activity of tyrosinase of B16F10 melanoma cell (Mean ± SE) (tyrosinase; 5.0 mM): 69.90 ± 1.733 % | Inhibiting effect on the activity of tyrosinase (tyrosinase; rather weaker than 3-O-lactosyl-L-ascorbic acid): a certain inhibiting effect

O=C1O[C@H]([C@@H](O)CO)C(OC2O[C@H](CO)[C@@H](O[C@@H]3O[C@H](CO)[C@H](O)[C@H](O)[C@H]3O)[C@H](O)[C@H]2O)=C1O (stereo partly drawn) [VC derivative 2, 3-O-(D-lactosyl)-L-ascorbic acid]
Degree of DOPA staining compared with blank control group (B16F10 cells [4]): lower degree of staining | Color ([3]; 1% aqueous solution, 0 °C): Colorless | Content (HPLC) ([3]; 1% aqueous solution, 0 °C): 98% | Color ([3]; 1% aqueous solution, 25 °C): Colorless | Content (HPLC) ([3]; 1% aqueous solution, 25 °C): 98% | Color ([3]; 1% aqueous solution, 45 °C): Slight | Content (HPLC) ([3]; 1% aqueous solution, 45 °C): 96% | Color ([3]; 5% aqueous solution, 0 °C): Colorless | Content (HPLC) ([3]; 5% aqueous solution, 0 °C): 98% | Color ([3]; 5% aqueous solution, 25 °C): Colorless | Content (HPLC) ([3]; 5% aqueous solution, 25 °C): 98% | Color ([3]; 5% aqueous solution, 45 °C): Slight | Content (HPLC) ([3]; 5% aqueous solution, 45 °C): 96% | Color ([3]; 10% aqueous solution, 0 °C): Colorless | Content (HPLC) ([3]; 10% aqueous solution, 0 °C): 98% | Color ([3]; 10% aqueous solution, 25 °C): Colorless | Content (HPLC) ([3]; 10% aqueous solution, 25 °C): 98% | Color ([3]; 10% aqueous solution, 45 °C): Slight | Content (HPLC) ([3]; 10% aqueous solution, 45 °C): 94% | Color, in words ([3]; 0° C.): colorless | Content (HPLC), in words ([3]; 0° C.): almost unchanged | Color, in words ([3]; 25° C. and 45° C.): colorless | Content (HPLC), in words ([3]; 25° C. and 45° C.): changed little | Content of melanin of B16F10 cells (Mean ± SE) (B16F10 cells [1]; 1.0 mM): 51.01 ± 2.71 % | Content of melanin of B16F10 cells (Mean ± SE) (B16F10 cells [1]; 2.5 mM): 30.08 ± 3.77 % | Content of melanin of B16F10 cells (Mean ± SE) (B16F10 cells [1]; 5.0 mM): 22.24 ± 1.80 % | Inhibiting melanin synthesis compared with kojic acid and arbutin (B16F10 cells [1]; at the same concentration): no statistical difference | Multiplication rate of melanoma cell (MTT method, Mean ± SE) ([2]; 1.0 mM): 72.67 ± 10.59% | Multiplication rate of melanoma cell (MTT method, Mean ± SE) ([2]; 5.0 mM): 79.34 ± 3.99% | Multiplication rate of melanoma cell (MTT method, Mean ± SE) ([2]; 10.0 mM): 76.56 ± 7.67% | Multiplication rate of melanoma cell (MTT method, Mean ± SE) ([2]; 20.0 mM): 66.67 ± 5.48 % | Concentration at which multiplication of B16F10 cells was significantly inhibited [2]: ≥ 10.0 mM | Concentration with no influence on the multiplication of B16F10 cells [2]: lower than 10.0 mM | Activity of tyrosinase of B16F10 melanoma cell (Mean ± SE) (tyrosinase; 1.0 mM): 51.01 ± 2.71 % | Activity of tyrosinase of B16F10 melanoma cell (Mean ± SE) (tyrosinase; 2.5 mM): 36.19 ± 2.98 % | Activity of tyrosinase of B16F10 melanoma cell (Mean ± SE) (tyrosinase; 5.0 mM): 20.68 ± 1.34 % | Inhibition of tyrosinase activity compared with kojic acid (tyrosinase; high concentration group (5.0 mM)): no statistical difference | Inhibition of the activity of tyrosinase (tyrosinase; high, middle and low concentrations (5.0 mM, 2.5 mM and 1.0 mM)): significantly inhibited | Inhibition of tyrosinase activity compared with kojic acid (tyrosinase; middle and low concentration groups (2.5 mM, 1.0 mM)): weaker | Inhibition of tyrosinase activity compared with arbutin (tyrosinase; three concentration groups (5.0, 2.5, 1.0 mM)): no statistical difference
